Experimental findings from patent US20220152048A1, “Botanical Extracts and Compounds from Castanea Plants and Methods of Use” (Emory University, priority 2019, published 2022) are described below.

Experiment [1] concerns Staphylococcus aureus reporter strains of agr (types I-IV: AH1677, AH430, AH1747, AH1872). Nature of the experiment: Quorum quenching assay with agr P3-YFP reporter strains (fluorescence). To be noted: read-out: IC50 for inhibition of fluorescence across agr reporter strains. Format: cell-based. The source says:
Hydroperoxy-cycloartanes were isolated from the methanolic extract of the leaves of Castanea sativa, a substantial, long-lived deciduous tree that produces an edible seed, the chestnut. 224C-F2c-PF42-SF6 is a mixture of a cycloartane with a hydroperoxy group at the terminus of its alkyl chain and a carboxylic acid and methyl group replacing the gem-dimethyl group (1a) and a cycloartane with a terminal alkene and carboxylic acid in the S configuration at C24 (1b). 224C-F2c-PF42-SF7 is a cycloartane with a terminal alkene and carboxylic acid in the R configuration at C24 (2). […] The compounds 2 and SF6 were evaluated for the ability to inhibit fluorescence of Staphylococcus aureus reporter strains of agr, the main gene regulating quorum sensing. Additionally, 2 and SF6 were evaluated for cytotoxicity against human immortalized keratinocytes (HaCaT).
After eluting from the column, 224C-F2 was split into parts a-d. […] A screen against S. aureus reporter strains of AIP-induced agr:P3 activation representing all four agr subtypes functioned as a preliminary readout of quorum sensing inhibition and the bioassay which guided fractionation. […]

Experiment [2] has as its system Staphylococcus aureus reporter strain of agr I expression (AH1677). Briefly: agr I reporter strain AH1677 dose range (FIG. 3). To be noted: strain AH1677, fluorescence (FLD) of the gene reporter. Format: cell-based. On the procedure:
Strain AH1677 was treated with a range of doses of SF6, SF7, and a combination of the two. OD refers to growth, while FLD refers to fluorescence of the gene reporter. […] The combined effects of SF6 and SF7 are additive; a dose 4 μg/mL SF6+4 μg/mL SF7 has the same effect as an 8 μg/mL dose of either.
(§1) Fractions were tested for quorum quenching activity against all four agr types agr P3-YFP reporter strains AH1677 (type I), AH430 (type II), AH1747 (type III), and AH1872 (type IV). Sample stock solutions were dissolved in DMSO at a concentration of 2 mg/mL. Overnight cultures of reporter strains that were grown in TSB supplemented with chloramphenicol (Cam) were inoculated into fresh TSB containing Cam to achieve a working culture OD of 0.0006. Working culture was added to 96-well microtiter plates (Costar 3603) as was sample in order to achieve a final well volume of 200 μL. Mock vehicle (DMSO) treatments were included for each reporter strain. Microtiter plates were incubated at 37° C. with shaking (1250 rpm) in a Stuart SI505 incubator (Bibby Scientific, Burlington, N.J.) with a humidified chamber. Fluorescence (top reading, 493 nm excitation, 535 nm emission, gain 60) and optical density (OD) readings at 600 nm were recorded at 18 h using a Tecan Systems (San Jose, Calif.) Infinite M200 plate reader.

The subject of the next experiment is S. aureus. Nature of the experiment: Growth (optical density) of S. aureus. Format: cell-based, Staphylococcus aureus. To be noted: at the IC50 concentration of 8 μg/mL. Here is the method:
as §1

The structures appear in SMILES notation. Values after ≈ are worked out from the molar mass of the structure shown.

As usually defined, the IC50 is the point on the concentration scale where inhibition reaches its midpoint. For the compound `C=C(C)[C@H](CC[C@H](C)[C@@H]1CC[C@]2(C)[C@H]3[C@H](O)C[C@@H]4[C@@](C)(C(=O)O)[C@H](O)CC[C@]45C[C@]35CC[C@@]12C)OO` [Compound 2], the IC50 in experiment [1] was found to be 8 µg/mL (≈ 15.9 µM). For the same compound, the “activity in agr I reporter strain as compared to parent fraction and positive control 224C-F2c” value in experiment [2] was “slightly reduced”. Moreover, the “growth inhibitory effects on S. aureus” value in the experiment with S. aureus was “no growth inhibitory effects”.
